Results as given in patent US7288676B2, “Arylphenyl-substituted cyclic ketoenols” (Bayer CropScience AG, priority 1998, dated 2007).

Experiments:
Type in all cases: in vivo
[1] = system: larvae of the mustard beetle (Phaedon cochleariae); experiment: Phaedon larvae test; conditions: concentration of active compound 0.1 %, cabbage leaves (Brassica oleracea) dipped
Experimental: (§1) Phaedon larvae Test [table] To produce a suitable preparation of active compound, 1 part by weight of active compound is mixed with the stated amounts of solvent and emulsifier, and the concentrate is diluted with water to the desired concentration. Cabbage leaves (Brassica oleracea) are treated by being dipped into the preparation of active compound of the desired concentration and are populated with larvae of the mustard beetle (Phaedon cochleariae) while the leaves are still moist. After the desired period of time, the kill in % is determined. 100% means that all aphids have been killed; 0% means that none of the aphids have been killed.

[2] = system: larvae of the green rice leaf-hopper (Nephotettix cincticeps); experiment: Nephotettix test; conditions: active compound 0.1 %, rice seedlings (Oryza sativa) dipped
Experimental: as §1, with “Nephotettix” for “Phaedon larvae”, “Rice seedlings (Oryza sativa)” for “Cabbage leaves (Brassica oleracea)”, “green rice leaf-hopper (Nephotettix cincticeps)” for “mustard beetle (Phaedon cochleariae)”, “leaf-hoppers” for “aphids”

[3] = system: peach aphids (Myzus persicae); experiment: Myzus test; conditions: concentration of active compound 0.1 %, infested cabbage leaves (Brassica oleracea) dipped
Experimental: as §1, with “Myzus” for “Phaedon larvae”, “oleracea) which are heavily infested by peach aphids (Myzus persicae)” for “oleracea)”, “concentration.” for “concentration and are populated with larvae of the mustard beetle (Phaedon cochleariae) while the leaves are still moist.”

`COC1CCC2(CC1)NC(=O)C(c1c(C)cc(-c3ccc(Cl)cc3)cc1Cl)=C2O` (centres unmarked) [drawing 174] was tested, and the “Kill in % after 7 days” value [1] was 100%.
`CCOC1CCC2(CC1)NC(=O)C(c1c(C)cc(-c3ccc(Cl)cc3)cc1C)=C2O` (centres unmarked) [drawing 173] was tested, and the “Kill in % after 6 days” value [2] was 100%.
With `CCOC1CCC2(CC1)NC(=O)C(c1c(C)cc(-c3ccc(Cl)cc3)cc1C)=C2O` (centres unmarked) [drawing 175] the “Kill in % after 7 days” value [1] was 100%.
For `CCOC1CCC2(CC1)NC(=O)C(c1c(C)cc(-c3ccc(Cl)cc3)cc1C)=C2O` (centres unmarked) [drawing 171], the “Kill in % after 6 days” value [3] was 95%.
In the case of `COC1CCC2(CC1)NC(=O)C(c1c(C)cc(-c3ccc(Cl)cc3)cc1Cl)=C2O` (centres unmarked) [drawing 172], the “Kill in % after 6 days” value [2] is reported as 100%.
